Measurements as given in patent US10624917B2, “Compositions and methods useful for treating or preventing liver diseases or disorders, and promoting weight loss” (YALE UNIVERSITY, priority 2014, dated 2020).

Columns and labels:
Format in all cases: cell-based, mouse
[1] = tested on: active caspase-1 / pro-IL-1β in PECs; experiment: Western blot of caspase-1 and pro-IL-1β in PECs; settings: for up-regulation of Pro-IL-1β: 6 hours, FIG. 3C
Procedure: FIGS. 2A-2H illustrate the finding that adenosine mediates increase in IL-1β via the A2A receptor and amplifies signal 1 and signal 2 pathways. FIG. 2A: LPS primed PECs were treated with NECA (10 μM) in the presence or absence of […] different adenosine receptor antagonists for A1 (DPCPX, 10 nM), A2A (ZM 241385, 10 μM), A2B (MRS1706, 10 nM), A3 (MRS1523, 5 μM), or their combinations for 1 hour, and pulsed with ATP for 20 min. FIGS. 2A-2B: A2A receptor specific agonist (CGS21680) and antagonist ZM 241385 increase and block IL-1β production respectively. […] FIG. 2D: PEC's from A2A receptor deficient cells have low IL-1β production, which is not increased by NECA and CGS 21680. FIG. 2E: CGS21680 increases induction of Il1b mRNA expression, and this was decreased in A2A receptor deficient cells. FIG. 2F: Loss of the A2A receptor in macrophages results in much lower levels of Il1b protein A expression in response to LPS. FIG. 2G: CGS21680 and […] increases and decreases production of cleaved caspase-1, respectively. FIG. 2H: The production of cleaved caspase-1 is decreased in A2A receptor deficient macrophages. Data are expressed as the mean±SD from at least three independent experiments Immunoblots shown are representative results from at least three independent experiments. p<0.05 determined by Student's t-test.
(§1) FIGS. 3A-3I illustrate the finding that adenosine supersedes LPS induced tolerance and increases IL-1β production by upregulating transcription of pro-IL-1β via cAMP-PKA pathway. PECs were used in all of the following experiments. FIG. 3A: Primed (pri) with LPS (100 ng/ml) for 16 hours followed by stimulation (stim) with LPS (100 ng/ml), or NECA (10 μM) or CGS21680 (10 μM) in the presence or absence of LPS (100 ng/ml) for 6 hours. FIG. 3B: Treated with forskolin for 6 hours as indicated doses with and without LPS priming FIG. 3C: Treated with or without NECA (10 μM), CGS21680 (10 μM) or db-cAMP (200 μM) for 6 hours. FIG. 3D: LPS primed and treated with NECA or CGS21680 in the presence and absence of SQ22536, H89 and PKi. FIG. 3E: Primed with LPS for 16 hours and treated with ATP for 20 min, followed by CGS 21680 in the presence or absence of the adenylyl cyclase and PKA inhibitors SQ22536 and H-89. FIG. 3F: Primed with LPS and treated with or without NECA (10 μM) or db-cAMP (200 μM) for 6 hours. FIG. 3G: Treated with or without CGS21680 (10 μM) for 3 hours, and transcription was stopped by adding […] actinomycin D, and RNA samples collected at indicated times-points. FIG. 3H: LPS primed PECs obtained from wild type or A2AR-cKO mice were stimulated with NECA (10 μM) for 6 hours. The cells were harvested and RNA isolated after each treatment and the gene expression of Il1b and other genes as indicated quantified by real-time PCR using specific primers. FIG. 3I: Primed with LPS for 16 hours and treated with ATP for 20 min, followed by CGS 21680 in the presence or absence of SQ22536 or H-89 Immunoblot analysis of the proIL-1β caspase-1 in cell lysate was performed by specific […] and anti caspase-1 p10 antibodies (FIGS. 3C, 3E-3F, 3I). Data are expressed as the mean±SD from three independent experiments Immunoblots shown are representative results from at least three independent experiments. *p<0.05 determined by Student's t-test.
Liver tissue lysates or PECs were lysed in RIPA buffer (10 mM phosphate buffer pH 7.4, 150 mM NaCl, 1% NP-40, 0.5% sodium deoxycholate, 0.1% SDS) supplemented with complete protease inhibitor cocktail (Roche) and 2 mM dithiothreitol. Lysates were resolved in 4-12% Tris-glycine gradient gels (Invitrogen) and transferred to nitrocellulose (Invitrogen) by electro-blotting. The following antibodies were used: rabbit anti-caspase-1 p10 (SC-514, Santa Cruz), goat anti-mouse IL-1β (BAF401, R&D Systems), Rabbit antimouse HIF-1α (NB100-449, Novus Biologicals, Littleton, Colo.).

[2] = tested on: Il1b and other genes in PECs; experiment: Quantitative real-time RT-PCR gene expression in PECs; settings: for ability to supersede LPS tolerance for TIMP-1, VEGF and GLUT-1 gene expression / expression level of IL6 / expression level of Il1b / expression level of Il4: LPS primed PECs; for expression level of IL6 / expression level of Il1b / expression level of Il4: over 6 and 24 hours; for Il1b mRNA expression: PECs pretreated with LPS for 16 hours (LPS tolerant)
Procedure: as §1
FIGS. 9A-9H illustrate changes in expression of cytokines and tissue repair genes in peritoneal macrophages in response to adenosine agonists. LPS naive or LPS primed PECs were stimulated with LPS (100 ng ml^−1), CGS21680 (10 μM) or NECA (10 μM) at different time points as indicated. The cells were harvested and RNA isolated after each treatment, and the gene expression of ProIL-1β (Il1b) (FIG. 9A), IL-6 (Il6) (FIG. 9B), IL-4 (Il4) (FIG. 9C), TNF-α (tnfa) (FIG. 9D), TIMP-1 (Timp1) (FIG. 9E), VEGF (vegf) (FIG. 9F), PGK-1 (Pgk1) (FIG. 9G), GLUT-1 (Slc2a1) (FIG. 9H) quantified by real-time PCR using each specific gene primer set as listed. Data are expressed as the mean±SD from three independent experiments. *p<0.05 determined by Student's t-test.
Total RNA was extracted using TRIZOL reagent (Invitrogen), and cDNA was generated with an oligo (dT) primer and the Superscript II system (Invitrogen, USA) followed by analysis using LightCycler 480 system (Roche). q-PCR was performed for Il1b using commercial primer-probe sets (Applied Biosystems Inc.) with DNA master Mix (Roche). Expression of GAPDH was used to standardize the samples, and the results were expressed as a ratio relative to control; q-PCR was performed for tnfa, 116, Txnip, Nlrp3, Hif1a, Timp1, using LightCycler 480 SYBR Green I master mix (Roche). Results were normalized based on the expression of β-actin.

[3] = tested on: IL-1β production in murine peritoneal macrophages (PECs); experiment: IL-1β secretion (ELISA) by primed, ATP-pulsed peritoneal macrophages (PECs); settings: LPS and monosodium urate (MSU) crystals

Structure (SMILES) | up-regulation of Pro-IL-1β [1] | active caspase-1 ([1]; compound alone) | active (cleaved) caspase-1 ([1]; in response to LPS/ATP) | ability to supersede LPS tolerance for TIMP-1, VEGF and GLUT-1 gene expression [2] | expression level of IL6 [2] | expression level of Il1b [2] | expression level of Il4 [2] | Il1b mRNA expression [2] | Il1b transcript stability (rate of loss of Il1b mRNA) ([2]; transcription stopped with actinomycin D) | IL-1β production [3]
CCNC(=O)[C@H]1O[C@@H](n2cnc3c(N)nc(NCCc4ccc(CCC(=O)O)cc4)nc32)[C@H](O)[C@@H]1O [CGS21680] | induced up-regulation | did not result in detectable active caspase-1 | increases | consistent ability | increase | increase | increase | dramatic increase | did not affect transcript stability | 
CCNC(=O)[C@H]1O[C@@H](n2cnc3c(N)ncnc32)[C@H](O)[C@@H]1O [NECA, 5′-(N-ethylcarboxamido) adenosine] | induced up-regulation |  |  | consistent ability | increase | increase | increase | dramatic increase |  | increased
